Like-named read-outs stand apart in the source and are kept apart here.
How the values were obtained:
[1] = tested on: CAKI-1 (Renal Cancer); test: NCI DTP tumor cell line screen (SRB), CAKI-1
Experimental: (§1) For a typical screening experiment, cells are inoculated into 96 well microtiter plates in 100 μL at plating densities ranging from 5,000 to 40,000 cells/well depending on the doubling time of individual cell lines. After cell inoculation, the microtiter plates are incubated at 37° C., 5% CO2, 95% air and 100% relative humidity for 24 h prior to addition of experimental drugs.
(§2) After 24 h, two plates of each cell line are fixed in situ with TCA, to represent a measurement of the cell population for each cell line at the time of drug addition (Tz). Experimental drugs are solubilized in dimethyl sulfoxide at 400-fold the desired final maximum test concentration and stored frozen prior to use. At the time of drug addition, an aliquot of frozen concentrate is thawed and diluted to twice the desired final maximum test concentration with complete medium containing 50 μg/ml gentamicin. Additional four, 10-fold or ½ log serial dilutions are made to provide a total of five drug concentrations plus control. Aliquots of 100 μl of these different drug dilutions are added to the appropriate microtiter wells already containing 100 μl of medium, resulting in the required final drug concentrations.
(§3) Following drug addition, the plates are incubated for an additional 48 h at 37° C., 5% CO2, 95% air, and 100% relative humidity. For adherent cells, the assay is terminated by the addition of cold TCA. Cells are fixed in situ by the gentle addition of 50 μl of cold 50% (w/v) TCA (final concentration, 10% TCA) and incubated for 60 minutes at 4° C. The supernatant is discarded, and the plates are washed five times with tap water and air dried. Sulforhodamine B (SRB) solution (1001) at 0.4% (w/v) in 1% acetic acid is added to each well, and plates are incubated for 10 minutes at room temperature. After staining, unbound dye is removed by washing five times with 1% acetic acid and the plates are air dried. Bound stain is subsequently solubilized with 10 mM trizma base, and the absorbance is read on an automated plate reader at a wavelength of 515 nm. For suspension cells, the methodology is the same except that the assay is terminated by fixing settled cells at the bottom of the wells by gently adding 50 μl of 80% TCA (final concentration, 16% TCA). Using the seven absorbance measurements [time zero, (Tz), control growth, (C), and test growth in the presence of drug at the five concentration levels (Ti)], the percentage growth is calculated at each of the drug concentrations levels. Percentage growth inhibition is calculated as: [(Ti−Tz)/(C−Tz)]×100 for concentrations for which Ti>/=Tz [(Ti−Tz)/Tz]×100 for concentrations for which Ti<Tz
(§4) Three dose response parameters are calculated for each experimental agent. […] The drug concentration resulting in total growth inhibition (TGI) is calculated from Ti=Tz. […] Values are calculated for each of these three parameters if the level of activity is reached; however, if the effect is not reached or is exceeded, the value for that parameter is expressed as greater or less than the maximum or minimum concentration tested.

[2] = tested on: NCI-H23 (Non-Small Cell Lung Cancer)
Experimental: as §1, §2, §3, §4

[3] = tested on: RPMI-8226 (Leukemia); test: NCI DTP tumor cell line screen (SRB), RPMI-8226
Experimental: as §1, §2, §3, §4

[4] = tested on: SK-MEL-5 (Melanoma); test: NCI DTP tumor cell line screen (SRB), SK-MEL-5
Experimental: as §1, §2, §3, §4

[5] = tested on: 786-0 (Renal Cancer); test: NCI DTP tumor cell line screen (SRB), 786-0
Experimental: as §1, §2, §3, §4

[6] = tested on: HCT-116 (Colon Cancer); test: NCI DTP tumor cell line screen (SRB), HCT-116
Experimental: as §1, §2, §3, §4

[7] = tested on: RXF 393 (Renal Cancer); test: NCI DTP tumor cell line screen (SRB), RXF 393
Experimental: as §1, §2, §3, §4

[8] = tested on: SK-OV-3 (Ovarian Cancer); test: NCI DTP tumor cell line screen (SRB), SK-OV-3
Experimental: as §1, §2, §3, §4

[9] = tested on: HOP-92 (Non-Small Cell Lung Cancer); test: NCI DTP tumor cell line screen (SRB), HOP-92
Experimental: as §1, §2, §3, §4

[10] = tested on: K-562 (Leukemia); test: NCI DTP tumor cell line screen (SRB), K-562
Experimental: as §1, §2, §3, §4

[11] = tested on: CCRF-CEM (Leukemia); test: NCI DTP tumor cell line screen (SRB), CCRF-CEM
Experimental: as §1, §2, §3, §4

[12] = tested on: UACC-62 (Melanoma); test: NCI DTP tumor cell line screen (SRB), UACC-62
Experimental: as §1, §2, §3, §4

[13] = tested on: SW-620 (Colon Cancer); test: NCI DTP tumor cell line screen (SRB), SW-620
Experimental: as §1, §2, §3, §4

[14] = tested on: OVCAR-3 (Ovarian Cancer); test: NCI DTP tumor cell line screen (SRB), OVCAR-3
Experimental: as §1, §2, §3, §4

[15] = tested on: IGROV1 (Ovarian Cancer); test: NCI DTP tumor cell line screen (SRB), IGROV1
Experimental: as §1, §2, §3, §4

## 4-[5-(2-Phenanthrenyl)-3-(trifluoromethyl)-1H-pyrazol-1-yl]-phenyl -guanidine [Compound 71]
[1]
  GI50: 1830 nM
  TGI: 3.22E−06
[1]; Log10 Concentration −4.0
  Percent Growth: −47%
[1]; Log10 Concentration −5.0
  Percent Growth: −100%
[1]; Log10 Concentration −6.0
  Percent Growth: 103%
[1]; Log10 Concentration −8.0
  Percent Growth: 97%
[2]
  GI50: 1790 nM
  TGI: 3.18E−06
[2]; Log10 Concentration −4.0
  Percent Growth: −67%
[2]; Log10 Concentration −5.0
  Percent Growth: −100%
[2]; Log10 Concentration −6.0
  Percent Growth: 101%
[3]
  GI50: 1030 nM
  TGI: 2.25E−06
[3]; Log10 Concentration −4.0
  Percent Growth: −47%
[3]; Log10 Concentration −5.0
  Percent Growth: −95%
[3]; Log10 Concentration −6.0
  Percent Growth: 52%
[3]; Log10 Concentration −7.0
  Percent Growth: 65%
[3]; Log10 Concentration −8.0
  Percent Growth: 58%
[4]
  GI50: 2220 nM
  TGI: 4.07E−06
[4]; Log10 Concentration −4.0
  Percent Growth: −34%
[4]; Log10 Concentration −6.0
  Percent Growth: 116%
[4]; Log10 Concentration −7.0
  Percent Growth: 111%
[4]; Log10 Concentration −8.0
  Percent Growth: 97%
[5]
  GI50: 1490 nM
  TGI: 2.91E−06
[5]; Log10 Concentration −4.0
  Percent Growth: −30%
[5]; Log10 Concentration −6.0
  Percent Growth: 80%
[6]
  GI50: 1290 nM
  TGI: 2.55E−06
[6]; Log10 Concentration −4.0
  Percent Growth: −49%
[6]; Log10 Concentration −5.0
  Percent Growth: −100%
[6]; Log10 Concentration −6.0
  Percent Growth: 68%
[6]; Log10 Concentration −8.0
  Percent Growth: 82%
[7]; RXF 383
  TGI: 2.91E−06
[7]; RXF 383, Log10 Concentration −4.0
  Percent Growth: −4%
[7]; RXF 383, Log10 Concentration −6.0
  Percent Growth: 53%
[7]; RXF 383, Log10 Concentration −7.0
  Percent Growth: 53%
[7]; RXF 383, Log10 Concentration −8.0
  Percent Growth: 42%
[8]
  GI50: 1430 nM
  TGI: 2.94E−06
[8]; Log10 Concentration −4.0
  Percent Growth: −30%
[8]; Log10 Concentration −5.0
  Percent Growth: −85%
[8]; Log10 Concentration −6.0
  Percent Growth: 75%
[8]; Log10 Concentration −7.0
  Percent Growth: 91%
[9]
  GI50: 1010 nM
  TGI: 2.26E−06
[9]; Log10 Concentration −4.0
  Percent Growth: −28%
[9]; Log10 Concentration −5.0
  Percent Growth: −92%
[9]; Log10 Concentration −6.0
  Percent Growth: 50%
[9]; Log10 Concentration −7.0
  Percent Growth: 82%
[10]
  GI50: 326 nM
  TGI: 1.52E−06
[10]; Log10 Concentration −4.0
  Percent Growth: −60%
[10]; Log10 Concentration −5.0
  Percent Growth: −58%
[10]; Log10 Concentration −6.0
  Percent Growth: 13%
[10]; Log10 Concentration −8.0
  Percent Growth: 94%
[11]
  GI50: 1230 nM
  TGI: 2.48E−06
[11]; Log10 Concentration −4.0
  Percent Growth: −53%
[11]; Log10 Concentration −5.0
  Percent Growth: −99%
[11]; Log10 Concentration −6.0
  Percent Growth: 65%
[11]; Log10 Concentration −7.0
  Percent Growth: 79%
[11]; Log10 Concentration −8.0
  Percent Growth: 78%
[12]
  GI50: 1440 nM
  TGI: 2.74E−06
[12]; Log10 Concentration −4.0
  Percent Growth: −60%
[12]; Log10 Concentration −5.0
  Percent Growth: −100%
[12]; Log10 Concentration −6.0
  Percent Growth: 78%
[12]; Log10 Concentration −7.0
  Percent Growth: 83%
[13]
  GI50: 1750 nM
  TGI: 3.13E−06
[13]; Log10 Concentration −4.0
  Percent Growth: −92%
[13]; Log10 Concentration −5.0
  Percent Growth: −100%
[13]; Log10 Concentration −6.0
  Percent Growth: 98%
[13]; Log10 Concentration −7.0
  Percent Growth: 91%
[13]; Log10 Concentration −8.0
  Percent Growth: 83%
[14]
  GI50: 1400 nM
  TGI: 2.70E−06
[14]; Log10 Concentration −4.0
  Percent Growth: −72%
[14]; Log10 Concentration −5.0
  Percent Growth: −100%
[14]; Log10 Concentration −6.0
  Percent Growth: 76%
[14]; Log10 Concentration −8.0
  Percent Growth: 91%
[15]
  GI50: 1070 nM
  TGI: 2.26E−06
[15]; Log10 Concentration −4.0
  Percent Growth: −53%
[15]; Log10 Concentration −5.0
  Percent Growth: −100%
[15]; Log10 Concentration −6.0
  Percent Growth: 55%
[15]; Log10 Concentration −7.0
  Percent Growth: 83%
[15]; Log10 Concentration −8.0
  Percent Growth: 85%
